# Values of other authors, collected in patent US8282955B2, “Method for the preparation of a pharmaceutical composition comprising 5-aminosalicylic acid for use in treatment of ulcerative colitis and Crohn's disease” (Ferring B.V., priority 2001, dated 2012).
# Details: moisture and light
compound,measurement,value
"Nc1ccc(O)c(C(=O)O)c1 [Batch 5-ASA, 5-aminosalicylic acid]",Stability,poor stability
